Legend:
MCF10A p53+/+ cell line = assay: RT-PCR of cell cycle progression gene mRNA after 5-FU exposure; format: cell-based, human; conditions: 300 μM 5-FU for 24 h
Experimental: (§1) FIG. 2. […] P53 mutant MDA-MB-231 cells, p53wt MCF10A cells, and MCF10A cells with biallelic frameshift mutation in the p53 gene were treated or untreated with 300uM of 5-FU for 24 h. NMD was inhibited or not with 10 mM caffeine for 4 h before cytoplasmic RNA isolation. “*” symbols indicate RT-PCR amplicons with retained introns.
(§2) The following breast cell lines were used: MDA-MB-231 p53−/−, MCF10A p53+/+ cell line and the derivative of MCF10A p53−/−, all treated or untreated with 300 μM of 5-FU for 24 h. In addition, the NMD pathway was inhibited or not inhibited with caffeine for 4 h before cytoplasmic RNA isolation in order to detect the mRNA species that are degraded due to stop codons contained within retained introns.

MDA-MB-231 = assay: RNA-Seq detection of CiPAS (retained-intron polypeptides); format: cell-based, human
Text: (§3) The following Table 1 provides predicted-CiPAS and includes polypeptide sequences encoded by introns detected with high confidence in RNA-Seq generated from MDA-MB-231 and MCF10A p53−/− KO cells treated with 5-FU and caffeine and not detected in cells treated with caffeine alone. 38 and 76 CiPAS were detected in MDA-MB-231 and MCF10A p53−/− KO cells, respectively, including 18 shared CiPAS. Certain representative and non-limiting chemo-neoepitopes encoded by the CiPaS sequences are shown in bold, with overlapping amino acids in italics.

MCF10A p53−/− KO cells = assay: as above; format: cell-based, human; conditions: cells treated with 5-FU and caffeine, not detected with caffeine alone
Text: as §3

MDA-MB-231 p53−/− = assay: RT-PCR analysis of intron retention after 5-FU exposure; format: cell-based, human; conditions: 300 μM 5-FU for 24 h
Experimental: as §1, §2

MCF10A p53−/− = assay: as above; format: cell-based, human; conditions: 300 μM 5-FU for 24 h
Experimental: as §1, §2

Meth A tumor cells = assay: Tumor challenge with 5FU-treated or untreated Meth A cells, tumor growth; format: in vivo, BALB/cJ mice; conditions: for growth of 5-FU treated vs un-treated Meth A cells in vivo (AUC): FIG. 3A, in vitro 5-FU treatment alone, P=0.07; for growth of 5-FU-treated vs un-treated Meth A cells (AUC) in mice previously immunized with 5-FU-treated 4T1 cells: challenge one week after 4T1, P=0.003
Experimental: (§4) FIG. 3. BALB/cJ mice were challenged (on the left flank) at day 0 with 150,000 5FU- treated or untreated 4T1 tumor cells. Seven days after the first tumor challenge, they were challenged (on the right flank) with 95,000 5FU- treated or untreated Meth A tumor cells and growth of both tumors was measured. […] Each line represents tumor growth in a single mouse. […] B. (Top panel) 4T1 (un-treated or in vitro-5FU treated) growth curves in 5FU-treated mice (5FU i.p. 100 mg/kg at day -7, 50 mg/kg at day 0 and 20 mg/kg every three days after the first tumor challenge). […] (Bottom panel) The same mice as the top panel were challenged with un-treated or 5FU-treated Meth A cells, one week after challenge with 4T1 cells.
(§5) As known in the art, 4T1 cells are a breast cancer cell line derived from the mammary gland tissue of mouse. Meth A cancer cells are methyl-cholantrene-induced mouse sarcoma cells. […] This Example analyzes whether treatment with 5-FU generates new antigenic entities (such as CiPAS), and if treatment of both cell types produces the same antigens in both cells. If this process occurs, the antigens should be processed and presented identically in both cells of the BALB/c haplotype.
(§6) First, we tested if treatment of cells in vitro with 5-FU, in and of itself, makes the cancer cells grow differently because of cell death, or another phenomenon.

4T1 tumor cells = assay: Tumor challenge with 5FU-treated or untreated 4T1 cells, tumor growth; format: in vivo, BALB/cJ mice; conditions: FIG. 3B top, 5FU-treated mice (i.p. 100 mg/kg day -7, 50 mg/kg day 0, 20 mg/kg every three days)
Experimental: as §4, §5, §6

- MCM10 mRNA in response to 5-FU (MCF10A p53+/+ cell line; data not shown): repressed
- transcription of the mRNA of the CCNE2 cell cycle progression gene in response to 5-FU (MCF10A p53+/+ cell line; only in MCF10A cells with p53+/+): repressed
- number of genes with overexpressed introns in 5-FU treated 4T1 samples (4T1 cells): 804 genes
- number of introns overexpressed in 5-FU treated 4T1 samples (4T1 cells): 991 introns
- intron retention in MCM10 and CCNE2 genes in response to 5-FU (MDA-MB-231 p53−/−; only in cells with mutant p53): intron retention
- intron retention in MCM10 and CCNE2 genes in response to 5-FU (MCF10A p53−/−; only in cells with mutant p53): intron retention
Compound: O=c1[nH]cc(F)c(=O)[nH]1 [5-FU, 5-fluorouracil]
- number of CiPAS detected (MDA-MB-231; cells treated with 5-FU and caffeine, not detected with caffeine alone): 38 CiPAS
- number of shared CiPAS (MDA-MB-231; shared between MDA-MB-231 and MCF10A p53−/− KO cells, 5-FU and caffeine): 18 CiPAS
- number of CiPAS detected (MCF10A p53−/− KO cells): 76 CiPAS
- extent of retention of 6th intron of the CCNE2 gene (MDA-MB-231 p53−/−): only part of the 6th intron of the CCNE2 gene is retained
- extent of retention of 6th intron of the CCNE2 gene (MCF10A p53−/−): the whole intron is retained
- growth of 5-FU treated vs un-treated Meth A cells in vivo (AUC) (Meth A tumor cells): grow identically
- growth of 5-FU treated vs un-treated Meth A cells in vivo (AUC) (Meth A tumor cells; listed as 5FU): grow similarly
- slower growth of 5-FU-treated Meth A cells in mice previously challenged with 5-FU-untreated 4T1 cells (Meth A tumor cells; FIG. 3B bottom): not seen
- growth of 5-FU-treated vs un-treated Meth A cells (AUC) in mice previously immunized with 5-FU-treated 4T1 cells (Meth A tumor cells; FIG. 3B bottom): grow more slowly
- growth of 5-FU-treated vs un-treated Meth A cells (AUC) in mice previously immunized with 5-FU-treated 4T1 cells (Meth A tumor cells; FIG. 3B bottom, listed as 5FU): significantly lower
- growth of 5-FU treated vs un-treated 4T1 cells in vivo (AUC) (4T1 tumor cells): grow essentially identically
- growth of 5-FU treated vs un-treated 4T1 cells in vivo (AUC) (4T1 tumor cells; listed as 5FU): grow the same
